# Test results: PMC10762078, “Role of UPF1-LIN28A interaction during early differentiation of pluripotent stem cells” (Nature Communications, 2024)
# Test system: CHA15 cells transcriptome / NMD targets
# Test: RNA-seq of CPP-P8/CPP-P1-treated CHA15 cells with siControl or siLIN28A (Supplementary Fig. 6e)
# Assay type: cell-based, Homo sapiens
# Procedure: For CPP-conjugated peptide delivery, HeLa, 293T, and PA-1 cells were incubated with CPP-conjugated peptides or CPP-FITC at 2 μM in DMEM with 10% FBS for 12 h a day before cell harvest. hPSCs were treated with CPP-conjugated peptides at 10 μM in mTeSR Plus Medium, and the peptide-containing medium was changed every day over 10 days. The ROCK inhibitor (Tocris Bioscience, Y-27632) treated-hPSCs were dissociated into single cells using Accutase (Merck, SCR005) and differentiated into ectoderm, mesoderm, and endoderm using the STEMdiff Trilineage Differentiation Kit ([…] Technologies, 05230) following the manufacturer’s protocol. Differentiated cells treated with CPP-conjugated peptides were analysed at 0, 3, and 5 days for ectoderm and endoderm, and at 0, 3, and 4 days for mesoderm.
# Total RNA concentration was calculated using Quant-IT RiboGreen (Invitrogen, R11490). To assess the integrity of the total RNA, samples were run on a TapeStation RNA screentape (Agilent). Only high-quality RNA preparations with RNA integrity number greater than 7.0 were used for the RNA library construction. A library was independently prepared with 1 μg of total RNA from each sample using the Illumina TruSeq Stranded mRNA Sample Prep Kit (Illumina, 20020594). The first step in the workflow involves purifying poly‐A-containing mRNA molecules using poly‐T‐attached magnetic beads. Following purification, mRNA was fragmented into small pieces using divalent cations at elevated temperatures. The cleaved RNA fragments were copied into first-strand cDNA using SuperScript II reverse transcriptase (Invitrogen, 18064022) and random primers. This was followed by second-strand cDNA synthesis using DNA polymerase I, RNase H, and dUTP. These cDNA fragments underwent an end repair process, adding a single ‘A’ base and ligating the adapters. The products were purified and enriched via PCR to create the final cDNA library. The libraries were quantified using the KAPA Library Quantification Kits for Illumina Sequencing platforms according to the qPCR Quantification Protocol Guide (KAPA BIOSYSTEMS, KR0405) and qualified using the TapeStation D1000 ScreenTape (Agilent). Indexed libraries were then submitted to an Illumina NovaSeq (Illumina), and Macrogen Inc. performed paired-end (2 × 100 bp) sequencing.
# We pre-processed the raw reads from the sequencer to remove low-quality reads and adapter sequences before analysis and aligned the processed reads to Homo sapiens (GRCh37) using HISAT v2.1.0[52]. HISAT utilises two indices for alignment (a global whole-genome index and tens of thousands of small local indexes). These two types of indices are constructed using the same Burrows-Wheeler transform (BWT)/graph FM index (GFM) as Bowtie2. The reference genome sequence of Homo sapiens (GRCh37) and the annotation data were downloaded from the NCBI database. Transcript assembly was processed using StringTie v1.3.4d[53],[54]. […] Differentially expressed genes (DEGs) were analysed by ratio of FPKM or using DESeq2 with read counts. Log2 fold-change value of the NMD targets[25],[32], three germ layer markers, miRNA targets, or SDGs was converted into cumulative frequency curve using the R function, ‘ecdf’ (version 4.0.5). Gene functional classification and Gene ontology (GO) were performed using g:Profiler[56]. […]
# Scale bars, 100 μm . d (Corresponding to Fig. 6d) RT -qPCR was perform ed to evaluate the level of indicated transcripts upon the indicated peptide treatm ent in CHA15 cells. e T ranscriptom e analysis was perf orm ed using signif icantly changed transcripts (p < 0.05) f rom siLIN28A or siControl in the indicated CPP-peptide treated CHA15 cells. Scatter […]
# (bottom panel), respectively. f Levels of m ature endogenous m iRNAs in CHA15 cells, which were regulated by LIN28A, were assessed using RT -qPCR. Cum ulative f raction of log2 fold change in the expression of genes regulated by let-7-5p and m iR-16- 5p was shown as CDF graphs. […]
# [1] = CHA15, absence of LIN28A (siRNA)
sequence,measurement,setting,value
"KKKWCRKKKSSADEKRYRALKRTAERELLMNA [CPP-P8, CPP conjugated to P8]",fraction deregulated in a LIN28A-independent manner,7 (6+1) out of 95 (42+53),7.4%
same,transcripts downregulated over 2-fold,[1],2 transcripts
same,transcripts upregulated over 2-fold,[1],12
same,transcripts downregulated over 2-fold,"CHA15, presence of LIN28A",53 transcripts
same,transcripts upregulated over 2-fold,"CHA15, presence of LIN28A",42 transcripts
same,FEZF1-AS1 expression,"CHA15, siControl",20.4087 FPKM
same,LHX5-AS1 expression,"CHA15, siControl",61.4319 FPKM
same,LMO1 expression,"CHA15, siControl",15.1171 FPKM
same,CUZD1 expression,"CHA15, siLIN28A",5.545 FPKM
same,CXCL5 expression,"CHA15, siLIN28A",5.9 FPKM
same,MT2A expression,"CHA15, siLIN28A",11.8304 FPKM
same,transcriptome change in absence of LIN28A,"hESCs, siLIN28A","less impact on the transcriptome change, including NMD targets, in the absence of LIN28A"
